# Measured values: patent EP2108642A1, “JAK INHIBITOR” (Kyowa Hakko Kirin Co., Ltd., priority 2006, dated 2008)
# Structures can show the parent of a compound that is named as a salt.
# Tests used:
# human JAK2 = target: T1, human JAK2 (Homo sapiens, UniProt O60674); assay: JAK2 enzyme inhibitory activity (time-resolved fluorescence kinase assay with biotinylated Lyn-substrate peptide); type: biochemical; conditions: at a concentration of 1 µmol/L; His-tagged JAK2 (826-1132 amino acids), 10 µmol/L ATP, 30°C, 60 minutes
# T1 construct: a functional domain (826-1132 amino acids) of human JAK2
# Experimental: In order to measure the JAK2 enzyme inhibitory activity, the following process was employed. […] The relative activity (%) of the well containing the test compound was calculated by assuming the activity of the well of the enzyme to which 0.1% DMSO was added as 100% and the activity of the well to which no enzyme was added as 0%, and the difference between 100 and the obtained value was assumed to be the JAK2 inhibition ratio (%) of the test compound.
# [1] = system: human acute myeloid leukemia cell line (HEL92.1.7) having a JAK2 V617F mutation; assay: Cell growth inhibitory activity against human acute myeloid leukemia cell line (WST-1 assay); type: cell-based; conditions: at a concentration of 10 µmol/L against HEL92.1.7, 72 hours culture
# Experimental: Test Example 2: Cell growth inhibitory activity against human acute myeloid leukemia cell line
# The cell growth inhibitory activity of test compound against a human acute myeloid leukemia cell line (HEL92.1.7) (ATCC No. TIB-180) having a JAK2 V617F mutation was measured according to the following process.
# A Roswell Park Memorial Institute's Medium (RPMI) 1640 medium (GIBCO, catalog No. 11875-093) containing 10% fetal bovine serum (GIBCO, catalog No. 10437-028) was used to culture each cells. HEL92.1.7 cells controlled at 2. 5 × 10^4 cells/mL were inoculated into a TC MICROWELL 96U plate (Nalge Nunc, catalog No. 163320) at 80 µL per well, and were cultured at 37°C for 4 hours in a 5% carbon dioxide gas incubator. Then, 20 µL per well of DMSO solutions of test compounds adjusted to a final concentration of 10 µmol/L were added to the HEL92.1.7 cells, and the resulting mixtures were cultured again at 37°C for 72 hours in a 5% carbon dioxide gas incubator. Finally, 25 µL of WST-1 reagent {4-[3-(4-indophenyl)-2-(4-nitrophenyl)-2H-5-tetrazolio]-1,3-benz ene disulfonate sodium salt} (Roche Diagnostics K.K., catalog No. 1644807) diluted to 40% with the medium described above was added, and incubation was conducted at 37°C for 2 hours, followed by measuring absorbance at 450 nm (reference wavelength: 690 nm) with a microplate spectrophotometer SPECTRA max 340PC (Molecular Devices). As for the cell growth inhibition ratio, the relative activity (%) of the well containing a test compound was calculated by assuming the activity of the well in which […] a medium to which only DMSO was added as 0%, and then the difference between 100 and the obtained value was assumed as the growth inhibition ratio (%) of the test compound. The higher the value, the stronger the growth inhibition activity against the cells.
# T1 sequence (O60674 826-1132): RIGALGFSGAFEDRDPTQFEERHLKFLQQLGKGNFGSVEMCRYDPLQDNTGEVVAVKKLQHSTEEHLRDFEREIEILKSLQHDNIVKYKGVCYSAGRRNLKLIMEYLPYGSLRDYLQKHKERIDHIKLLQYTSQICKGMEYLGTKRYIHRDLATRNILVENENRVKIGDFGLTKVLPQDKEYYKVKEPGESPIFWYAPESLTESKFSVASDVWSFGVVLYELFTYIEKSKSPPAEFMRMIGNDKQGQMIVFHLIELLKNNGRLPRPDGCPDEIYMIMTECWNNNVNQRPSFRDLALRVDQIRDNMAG
Compound,JAK2 inhibition ratio (human JAK2),cell growth inhibition ratio [1]
"CC(C)Oc1cc2c(c(-c3ccc[nH]3)c1)C(=O)NC2 [Compound 571, 5-(2-Propyloxy)-7-(1H-pyrrol-2-yl)isoindolinone]",≥ 50%,≥ 50%
"Cc1cc(O)ccc1-c1cc2c(c(-c3cc4cc(CN5CCCCC5)ccc4[nH]3)c1)C(=O)NC2 [Compound 550, 5-(4-Hydroxy-2-methylphenyl)-7-[1H-5-(piperidinomethyl)indol-2-yl]isoindolinone]",≥ 50%,≥ 50%
"CN(C)Cc1cc2c(c(-c3cc4cc(CN5CCN(CCO)CC5)ccc4[nH]3)c1)C(=O)NC2 [Compound 483, 5-(Dimethylaminomethyl)-7-{1H-5-[4-(2-hydroxyethyl)piperazin-1-ylmethyl]indol-2-yl}isoindolinone trihydrochloride]",≥ 50%,≥ 50%
"O=C1NCc2c(C#CCCO)ccc(-c3cc4cc(CN5CCCCC5)ccc4[nH]3)c21 [Compound 320, 4-(4-Hydroxy-1-butynyl)-7-[1H-5-(piperidinomethyl)indol-2-yl]iso indolinone hydrochloride]",≥ 50%,≥ 50%
"CCN(CC)Cc1ccc2[nH]c(-c3cc(CN(C)C)cc4c3C(=O)NC4)cc2c1 [Compound 504, 5-(Dimethylaminomethyl)-7-[1H-5-(diethylaminomethyl)indol-2-yl)i soindolinone]",≥ 50%,≥ 50%
"CC(C)Oc1cc2c(c(-c3cc4cc(CN5CCCCC5)ccc4[nH]3)c1)C(=O)NC2 [Compound 484, 5-(2-Propyloxy)-7-[1H-5-(piperidinomethyl)indol-2-yl]isoindolinone hydrochloride]",≥ 50%,≥ 50%
"CC(C)Nc1cc2c(c(-c3cc4cc(CN5CCCCC5)ccc4[nH]3)c1)C(=O)NC2 [Compound 509, 5-(2-Propylamino)-7-[1H-5-(piperidinomethyl)indol-2-yl)isoindoli none dihydrochloride]",≥ 50%,≥ 50%
"CCN(CC)Cc1ccc2[nH]c(-c3cc(C(O)C(C)C)cc4c3C(=O)NC4)cc2c1 (centres unmarked) [Compound 555, 5-(1-Hydroxy-2-methylpropyl)-7-[1H-5-(diethylaminomethyl)indol-2-yl]isoindolinone hydrochloride]",≥ 50%,≥ 50%
"CN(C)Cc1cc(-c2cc3cc(CN4CCCCC4)ccc3[nH]2)c2c(c1O)CNC2=O [Compound 562, 4-Hydroxy-5-(dimethylaminomethyl)-7-[1H-5-(piperidinomethyl)indol-2-yl]isoindolinone dihydrochloride]",≥ 50%,≥ 50%
"O=C1NCc2c(-c3ccc(O)cc3)ccc(-c3cc4cc(CN5CCCCC5)ccc4[nH]3)c21 [Compound 305, 4-(4-Hydroxyphenyl)-7-[1H-5-(piperidinomethyl)indol-2-yl]isoindo linone hydrochloride]",≥ 50%,≥ 50%
